Laboratory results as given in PubChem BioAssay AID179 (DTP/NCI, 2004).
Where “and” joins values, the source holds several entries; their conditions need not be identical. Equal entries are not always repeated. Calls of active or inactive are those of the source.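 Rule for the calls: active = compounds giving half or more protection of infected cells from virus-caused growth loss, again on retest; inactive = the rest.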

Test system: CEM cells HIV-1 protection, formazan growth assay
Test: NCI AIDS Antiviral Assay
Details: for IC50: measured here: growth of uninfected CEM cells
In short: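 Screen of anti-HIV-1 activity in human CEM cells using a formazan-based growth measurement at five drug concentrations. Hits with 50% or greater protection were repeated, and confirmation required reproducible complete protection.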

Compound | EC50 | IC50 | outcome
O=C1C=C/C(=N\N=C(c2ccccc2)c2ccccc2)O1 | > 200 µM | 145 µM | –
C[CH2][Sn]([CH2]C)([O]C(=O)c1ccccc1OC)[O][Sn]([CH2]C)([CH2]C)[O]C(=O)c1ccccc1OC | > 38.9 µM | 29.5 µM | –
O=c1c(C=Nc2ccccc2Cl)c(O)n(-c2ccccc2)c(=O)n1-c1ccccc1 | – | – | inactive
COc1ccc(C(=O)/C=C/c2ccc(OCCCOc3ccc(/C=C/C(=O)c4ccc(OC)cc4)cc3)cc2)cc1 | > 200 µM | > 200 µM | –
CCOC(=O)c1ccccc1NC(=O)CN(CC)CC | > 200 µM | > 200 µM | –
N#CC(C#N)=Cc1ccc(Oc2ccccc2)cc1 | > 21.4 µM | 16.6 µM | –
CN(C)c1ccc(C=C2C(=O)OC(C)(C)OC2=O)cc1Br | > 28.2 µM | > 28.2 µM | –
COc1cc(C(=O)C/C(CCCC(=O)Nc2ccccc2[N+](=O)[O-])=N/NC(=O)c2cc3ccccc3cc2O)ccc1O | > 32.4 µM | 27.5 µM | –
CC(SC(C)C(=O)N/N=C/c1c[nH]c2ccccc12)C(=O)N/N=C\c1c[nH]c2ccccc12 (centres undefined) | > 200 µM | 120 µM | –
CC1N=C(c2ccccc2)OC1=O (centres undefined) | > 200 µM | > 200 µM | –
CC(=O)OC1(Sc2ccccc2)CC2[C@H]3COC(C)(C)O[C@H]3CC[C@@]2(C)CC1=O (some centres undefined) | – | – | inactive
Nn1c(=O)[nH]c2ncn(Cc3ccccc3)c2c1=O | > 200 µM | > 200 µM | –
CCOC(=O)/C(C#N)=C1\SS/C(=C(/C#N)C(=O)OCC)S1 | > 200 µM | 19.5 µM | –
COC(=O)CCC1(CCC(=O)OC)CCCCCCC(CCC(=O)OC)(CCC(=O)OC)C(=O)C1=O | > 200 µM | > 200 µM | –
Cc1ccc(SCC(CF)OCn2cc(F)c(=O)[nH]c2=O)cc1 (centres undefined) | > 200 µM | 123 µM | –
[N-]=[N+]=NC1CC(n2cc(CO)c(=O)[nH]c2=O)OC1CO (centres undefined) | > 437 µM | 240 µM | –
Cc1ccnc2c1C(=O)C(=O)C=C2N1CCOCC1 | – | – | inactive
C=C1CCC/C(=N/NC(N)=O)C12CC2 | > 200 µM | > 200 µM | –
COc1cc(C(=O)N(C)N(C)C)cc(OC)c1OC | > 200 µM | > 200 µM | –
CC[C@@H](C)[C@H](NC(=O)[C@H](CCCCN)NC(=O)[C@H](CCCCN)NC(=O)[C@H](CC(C)C)NC(=O)[C@@H]1CCCN1C(=O)[C@@H]1CCCN1C(=O)[C@@H](NC(=O)[C@H](CC(C)C)NC(=O)[C@H](CCCCN)NC(=O)[C@H](CCCN=C(N)N)NC(=O)[C@@H](N)C(C)C)[C@@H](C)O)C(=O)O | – | – | inactive
N#Cc1cc2c(N)ncnc2nc1N1CCCC1 | > 200 µM | 191 µM | –

Compound | EC50 | IC50 | outcome
O=C1NC(=O)C(=Cc2ccc(F)cc2)C(=O)N1 | > 112 µM | > 112 µM | –
O=C1c2c([nH]ccc2=O)-c2nccc3c2c1nc1ccccc13 | > 2 µM | 0.603 µM | –
COC(=O)C1Cc2c([nH]c3ccccc23)[C@H](CC(C)C)N1 (some centres undefined) | – | – | inactive
Cc1nn(C(=O)c2ccc(Cl)cc2)c2c1C(c1cccc([N+](=O)[O-])c1)SC(N)=N2 (centres undefined) | 126 µM | 138 µM | –
COc1cc2c[n+](C)c3c(c2cc1OC)Cc1cc2c(cc1-3)OCO2 | > 19.5 µM | > 19.5 µM | –
COc1ccc(Br)c(CN2CCc3ccccc32)c1OS(=O)(=O)c1ccc(C)cc1 | – | – | inactive
Cc1ccc(S(=O)(=O)NN=C2C(C)(C)CC2(C)C)cc1 | > 200 µM | > 200 µM | –
Cn1c(SSc2ccc(-c3cccnc3)n2C)ccc1-c1cccnc1 | > 200 µM | 1.86 µM and 2.45 µM | –
Cc1c(Cl)cccc1NC(=O)/C(Cl)=C(\Cl)C(=O)O | – | – | inactive
NC(=S)N/N=C1\CC(c2ccccc2)Nc2ccccc21 (centres undefined) | – | – | inactive
CN1C(=O)C2C=C3CCCCC3=CC2N(C)C1=O (centres undefined) | > 200 µM | > 200 µM | –
O=c1c2c(F)c(F)c(F)c(F)c2sc2nccn12 | > 200 µM | 3.89 µM | –
CCCCS/C(=C(/C#N)C(N)=O)c1cc2c([nH]1)CCCC2 | – | – | inactive
CCCc1cc2c(=O)c(C(=O)OC)c[nH]c2cc1N(CC)CC | > 200 µM | > 200 µM | –
c1cc2n[se]nc2cc1-c1ccc2n[se]nc2c1 | 155 µM | > 200 µM | –
OC1(c2cccc(Cl)c2)C2=NCCCN2c2ccccc21 (centres undefined) | – | – | inactive
Cn1c2ccccc2c2nn3cnnc3nc21 | > 32.4 µM | > 32.4 µM | –
CCN(CC)c1ccc2cc3ccc(=[N+](CC)CC)cc-3oc2c1 | > 501 µM | 0.158 µM | –
CCCCC[C@H]1CCCCCCCCCC(=O)OC2C(O[C@@H]3OC(C)[C@H](OC(=O)[C@@H](C)CC)C(O[C@@H]4OC(C)[C@H](O)C(O)[C@@H]4O)[C@@H]3OC(=O)[C@H](C)CC)[C@H](OC3C(O)[C@@H](O)C(C)O[C@H]3O1)OC(CO)[C@H]2O (some centres undefined) | > 200 µM | 11.2 µM | –
COC(=N)/C(C#N)=N/C1OCC(O)C(O)C1O (centres undefined) | – | – | inactive
COC(CC[P+](c1ccccc1)(c1ccccc1)c1ccccc1)(C(=O)c1ccccc1)c1ccccc1 (centres undefined) | > 20 µM | 0.447 µM | –

Compound | EC50 | IC50 | outcome
C=CCc1cccc(/C=N\N=C(/N)NO)c1O | – | – | inactive
COc1ccc(OC2OC(CO)C(OCc3ccccc3)C(OCc3ccccc3)C2OCc2ccccc2)cc1 (centres undefined) | > 200 µM | 12 µM | –
Cc1cc(NS(=O)(=O)c2ccc(Nc3c4ccccc4nc4ccc(C(=O)Nc5ccc(S(=O)(=O)N=C(N)N)cc5)cc34)cc2)no1 | > 200 µM | 110 µM | –
CCCCCCCSCC(O)COC(c1ccccc1)(c1ccccc1)c1ccccc1 (centres undefined) | > 200 µM | 30.2 µM | –
CCCCCCCCCCCCCCCC(=O)OCC(COP(=O)(O)OCCNC(=O)CCSSc1ccccn1)OC(=O)CCCCCCCCCCCCCCC (centres undefined) | > 50.1 µM | 37.2 µM | –
CCOc1ccc(NC(=O)C(=O)Nn2c(N)nnc2N)cc1 | > 61.7 µM | > 61.7 µM | –
COc1cccc(C2c3cc4c(cc3OC(O)C2C)OCO4)c1OC (centres undefined) | > 200 µM | 1.51 µM | –
COc1cc(C(C)O)c[n+](CCC2CNc3ccccc32)c1 (centres undefined) | > 219 µM | 195 µM | –
NNC(=O)CC(=O)Nc1ccc(C(=O)O)cc1 | > 200 µM | > 200 µM | –
Nc1nc(N)c(N=O)c(=O)[nH]1 | > 200 µM | > 200 µM | –
Cn1c(=O)oc2nc(-c3ccccc3)cc(C(F)(F)F)c21 | > 200 µM | 19.1 µM | –
Cc1cccc(C=C2C(=O)NC(=O)NC2=O)c1 | > 407 µM | > 407 µM | –
Clc1ccc2nncc(N3CC3)c2c1 | – | – | inactive
O=C(Nc1ccc(/C=C/c2ccc(NC(=O)c3cc(S(=O)(=O)O)c4cccnc4c3O)cc2S(=O)(=O)O)c(S(=O)(=O)O)c1)c1cc(S(=O)(=O)O)c2cccnc2c1O | 4.47 µM | 148 µM | –
COc1ccc2c3c([nH]c2c1[N+](=O)[O-])C(C)N(Cc1ccccc1)CC3 (centres undefined) | – | – | inactive
c1ccc2c(c1)c1c(n2CCOCCN2CCCCC2)CCCC1 | > 200 µM | 8.32 µM | –
CC1=Nc2nc(=N)nc3cccc(n23)N1 | > 200 µM | 170 µM | –
CC(C)=CCC/C(C)=C/CC/C(C)=C/C1CCC(=O)C1(C)C (centres undefined) | > 85.1 µM | 41.7 µM | –
COCCOCCOCCOCCOCCOCCOCCOCCOCCOCCOCCOCCOCCOCCOCCOCCOCC(=O)N(CCn1cnc2nc(NC(=O)c3ccccc3)[nH]c(=O)c21)CCn1cnc2nc(NC(=O)c3ccccc3)[nH]c(=O)c21 | 1.32 µM | 47.9 µM | –
NC(=S)SC1=NNC2(C(=O)N1)c1ccccc1-c1ccccc12 | > 200 µM | 20.9 µM | –
C1=CC2CCC1CN2CCC1CNc2ccccc21 (centres undefined) | – | – | inactive

Compound | EC50 | IC50 | outcome
COc1ccc(NS(=O)c2c(C)cc(C)cc2C)cc1 (centres undefined) | > 200 µM | 12 µM | –
COc1ccc(CCNC(=O)Cc2cc(OC)c(OC)cc2Br)cc1OC | > 81.3 µM | > 81.3 µM | –
C=CC(CCC(C)OC(CCC)OCC)[Si](C)(C)C (centres undefined) | > 91.2 µM | > 91.2 µM | –
O=C(/C=C/c1ccc([N+](=O)[O-])cc1)c1ccccc1 | > 4.07 µM | > 4.07 µM | –
CC(=O)O[C@H]1CC(C)(C)C(=C=C/C(C)=C/C=C/C=C/C=C(C)/C=C2C=C(/C=C/[C@@]34O[C@]3(C)C[C@@H](O)CC4(C)C)C(=O)O/2)[C@](C)(O)C1 | > 151 µM | 6.92 µM | –
CC(C)CCCC(C)[C@H]1CC[C@H]2[C@@H]3CC[C@H]4C[C@@H](CCC=C(c5cc(Cl)c(OCc6ccc(CC(=O)O)cc6)c(C(=O)O)c5)c5cc(Cl)c(OCc6ccc(CC(=O)O)cc6)c(C(=O)O)c5)CC[C@]4(C)[C@H]3CC[C@]12C (some centres undefined) | 1.7 µM and 1.41 µM | 115 µM and 20 µM | –
C=C1CC(Cn2ccc(=O)[nH]c2=O)(c2ccc(-c3ccccc3)cc2)OC1=O (centres undefined) | > 20 µM | 0.479 µM | –
CC1CN=C(N(C)C(=O)Nc2ccc(Cl)c(Cl)c2)S1 (centres undefined) | > 200 µM | 37.2 µM | –
O=C(CC/C(CC(=O)c1ccc(Br)cc1)=N\O)Nc1ccc(Cl)c(Cl)c1 | > 79.4 µM | 16.2 µM | –
O=[N+]([O-])c1ccc(N=Nc2c(O)c(N=Nc3cc([N+](=O)[O-])cc([N+](=O)[O-])c3O)cc(N=Nc3cc(S(=O)(=O)O)cc4cc(S(=O)(=O)O)cc(O)c34)c2O)cc1 | 16.6 µM | 50.1 µM | –
CCNc1cc2c3c(c1)CCN3CCC2 | > 60.3 µM | 10.2 µM | –
CCCOc1cnc([C@H]2CCC3[C@@H]4CC=C5C[C@@H](OC(=O)CCC(=O)O)CC[C@]5(C)C4CC[C@@]32C)s1 (some centres undefined) | > 47.9 µM | 19.1 µM | –
CC(C)=C1C2CCC1C(CO)C2CO (centres undefined) | > 457 µM | > 457 µM | –
C=C1c2nc3ccccc3n2C=C(c2ccc(OC)cc2)N1c1ccccc1 | > 200 µM | 3.8 µM | –
NNC(=O)C(=O)N/N=C(/CCC(=O)NCCc1ccccc1)CC(=O)c1ccccc1 | – | – | inactive
Clc1c(C(Cl)(Cl)Cl)nsc1N1CCCCC1 | > 200 µM | 72.4 µM | –
CC1(C)C2C=C(CCN3CCOCC3)CC1C2 (centres undefined) | > 200 µM | > 200 µM | –
O=C(CC(O)(c1ccccc1)c1ccc(Cl)cc1)NC(=O)c1ccccc1O (centres undefined) | > 13.2 µM | > 13.2 µM | –
COc1ccc(S(=O)(=O)Cc2ccc(C(=O)O)cc2)cc1 | > 813 µM | > 813 µM | –
CCOC(=O)C1(C)CCC(C(C(=O)O)C(=O)O)CC1=O (centres undefined) | – | – | inactive
